Counter-ions that a name gives are not always drawn.
How the values were obtained:
bacteria = conditions: at clinically relevant doses; cited from earlier work
[1] = solid-state stability of avibactam forms against moisture, temperature stress and storage; format: physicochemical
[2] = cited from earlier work

NC(=O)[C@@H]1CC[C@@H]2CN1C(=O)N2OS(=O)(=O)O [Avibactam, [(2S,5R)-2-carbamoyl-7-oxo-1,6-diazabicylco[3.2.1]octan-6-yl] hydrogen sulfate]
antibacterial activity in itself (bacteria): no antibacterial activity

NC(=O)[C@@H]1CC[C@@H]2CN1C(=O)N2OS(=O)(=O)O [form A, avibactam sodium]
behaviour upon further temperature stress [1]: dehydrates to the anhydrous form B

NC(=O)[C@@H]1CC[C@@H]2CN1C(=O)N2OS(=O)(=O)O [form E, avibactam sodium]
temperature above which the form dehydrates to monohydrate form A [1]: above 60 °C
relative humidity above which the form is particularly stable ([2]; per WO 2011/042560 A1): > 70%
stability during long storage and at higher temperature ([2]; per WO 2011/042560 A1): tends to lose water and to hydrolyze

NC(=O)[C@@H]1CC[C@@H]2CN1C(=O)N2OS(=O)(=O)O [form C, avibactam sodium]
polymorphic stability (conversion to other crystalline forms) ([2]; ambient conditions and conditions of manufacturing of solid pharmaceutical dosage forms): does not convert to other crystalline forms

Source: patent publication US10919893B2, “Process for the preparation of crystalline form C of avibactam sodium” (Sandoz AG, priority 2017, dated 2021)
